Measurements from BindingDB's records for doi:10.7270/Q2J67FB5 (Nmmlsc, 2007).

Target: T1, fMet-Leu-Phe receptor (Homo sapiens, UniProt P21462)
T1 sequence (P21462 whole entry): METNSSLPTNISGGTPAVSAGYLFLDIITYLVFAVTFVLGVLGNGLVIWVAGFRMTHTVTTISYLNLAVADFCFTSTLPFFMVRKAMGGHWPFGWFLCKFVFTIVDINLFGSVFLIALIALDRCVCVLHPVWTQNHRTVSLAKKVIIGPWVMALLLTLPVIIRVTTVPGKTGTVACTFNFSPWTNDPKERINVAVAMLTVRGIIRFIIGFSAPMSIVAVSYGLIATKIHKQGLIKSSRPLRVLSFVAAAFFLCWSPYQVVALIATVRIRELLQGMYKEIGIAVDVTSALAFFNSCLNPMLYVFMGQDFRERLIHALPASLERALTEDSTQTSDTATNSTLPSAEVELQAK
Test: FPR ligands, dose response (AID 519)

SMILES | IC50 [µM]
Cc1ccc(C2C(C(=O)c3sc(C)nc3C)C(=O)C(=O)N2CCN2CCOCC2)o1 (stereo unspecified) [3-(2,4-dimethyl-1,3-thiazole-5-carbonyl)-4-hydroxy-2-(5-methylfuran-2-yl)-1-(2-morpholin-4-ylethyl)-2H-pyrrol-5-one] | > 66.7
COCCN1C(=O)C(=O)C(C(=O)c2ccco2)C1c1cccc(Oc2ccccc2)c1 (stereo unspecified) [3-(furan-2-carbonyl)-4-hydroxy-1-(2-methoxyethyl)-2-(3-phenoxyphenyl)-2H-pyrrol-5-one] | 56
C=CCOc1cccc(C2C(C(=O)c3ccco3)C(=O)C(=O)N2CCN2CCOCC2)c1 (stereo unspecified) [3-(furan-2-carbonyl)-4-hydroxy-1-(2-morpholin-4-ylethyl)-2-(3-prop-2-enoxyphenyl)-2H-pyrrol-5-one] | > 66.7
O=C1C(=O)N(CCc2ccccc2)C(c2cccnc2)C1C(=O)c1ccco1 (stereo unspecified) [3-(furan-2-carbonyl)-4-hydroxy-1-(2-phenylethyl)-2-pyridin-3-yl-2H-pyrrol-5-one] | > 66.7
CCCOc1ccc(C2C(C(=O)c3ccco3)C(=O)C(=O)N2CCCn2ccnc2)cc1 (stereo unspecified) [3-(furan-2-carbonyl)-4-hydroxy-1-(3-imidazol-1-ylpropyl)-2-(4-propoxyphenyl)-2H-pyrrol-5-one] | > 66.7
Cc1cc(N2C(=O)C(=O)C(C(=O)c3ccco3)C2c2cccnc2)no1 (stereo unspecified) [3-(furan-2-carbonyl)-4-hydroxy-1-(5-methyl-1,2-oxazol-3-yl)-2-pyridin-3-yl-2H-pyrrol-5-one] | > 66.7
COc1cc(C2C(C(=O)c3ccco3)C(=O)C(=O)N2CCc2ccccc2)ccc1O (stereo unspecified) [3-(furan-2-carbonyl)-4-hydroxy-2-(4-hydroxy-3-methoxyphenyl)-1-(2-phenylethyl)-2H-pyrrol-5-one] | > 66.7
O=C1CCCC(=O)C1C(C#Cc1ccccc1)C1C(=O)CCCC1=O [3-hydroxy-2-[1-(2-hydroxy-6-keto-cyclohexen-1-yl)-3-phenyl-prop-2-ynyl]cyclohex-2-en-1-one] | > 66.7
CSCCC1c2c(-c3cccs3)n[nH]c2OC(=N)C1C#N (stereo unspecified) [6-azanyl-4-(2-methylsulfanylethyl)-3-thiophen-2-yl-2,4-dihydropyrano[2,3-c]pyrazole-5-carbonitrile] | > 66.7
CC1=C(C(=O)OC(C)C)[C@]2(C(=O)N(CC(N)=O)c3ccccc32)C(C#N)C(=N)O1 (stereo partly drawn) [(3R)-6'-amino-1-(2-amino-2-keto-ethyl)-5'-cyano-2-keto-2'-methyl-spiro[indoline-3,4'-pyran]-3'-carboxylic acid isopropyl ester] | > 66.7
C=CCN1C(=O)C2(c3ccccc31)C(C(=O)c1ccc3c(c1)OCCO3)C(=O)C(=O)N2CCCOC (stereo unspecified) [(4'E)-1-allyl-4'-[2,3-dihydro-1,4-benzodioxin-6-yl(hydroxy)methylene]-1'-(3-methoxypropyl)spiro[indoline-3,5'-pyrrolidine]-2,2',3'-trione] | > 66.7
COc1cc(C2C(C(=O)c3ccc4c(c3)CC(C)O4)C(=O)C(=O)N2CCCn2ccnc2)ccc1O (stereo unspecified) [(4E)-1-(3-imidazol-1-ylpropyl)-5-(3-methoxy-4-oxidanyl-phenyl)-4-[(2-methyl-2,3-dihydro-1-benzofuran-5-yl)-oxidanyl-methylidene]pyrrolidine-2,3-dione] | 57.5
COCCCN1C(=O)C(=O)C(C(=O)c2ccc3c(c2)CC(C)O3)C1c1cccnc1 (stereo unspecified) [(4E)-1-(3-methoxypropyl)-4-[(2-methyl-2,3-dihydro-1-benzofuran-5-yl)-oxidanyl-methylidene]-5-pyridin-3-yl-pyrrolidine-2,3-dione] | > 66.7
Cc1ccc(C)c(C(=O)C2C(=O)C(=O)N(CCCn3ccnc3)C2c2ccncc2)c1 (stereo unspecified) [(4E)-4-[(2,5-dimethylphenyl)-hydroxy-methylene]-1-(3-imidazol-1-ylpropyl)-5-(4-pyridyl)pyrrolidine-2,3-quinone] | > 66.7
Cc1nc2c(C)cccn2c1C(=O)C1C(=O)C(=O)N(CCN2CCOCC2)C1c1cccs1 (stereo unspecified) [(4E)-4-[(2,8-dimethyl-3-imidazo[1,2-a]pyridinyl)-hydroxymethylidene]-1-[2-(4-morpholinyl)ethyl]-5-thiophen-2-ylpyrrolidine-2,3-dione] | > 66.7
COc1cccc(C2C(C(=O)c3ccc(OC)c(OC)c3)C(=O)C(=O)N2c2cc(C)on2)c1 (stereo unspecified) [(4E)-4-[(3,4-dimethoxyphenyl)-hydroxy-methylene]-5-(3-methoxyphenyl)-1-(5-methylisoxazol-3-yl)pyrrolidine-2,3-quinone] | > 66.7
COCCCN1C(=O)C(=O)C(C(=O)c2ccc(OC)cc2C)C1c1cccnc1 (stereo unspecified) [(4E)-4-[(4-methoxy-2-methyl-phenyl)-oxidanyl-methylidene]-1-(3-methoxypropyl)-5-pyridin-3-yl-pyrrolidine-2,3-dione] | > 66.7
COc1ccc(C(=O)C2C(=O)C(=O)N(Cc3ccco3)C2c2ccc(OC)cc2OC)cc1 (stereo unspecified) [(4E)-5-(2,4-dimethoxyphenyl)-1-(2-furanylmethyl)-4-[hydroxy-(4-methoxyphenyl)methylidene]pyrrolidine-2,3-dione] | > 66.7
CC1Cc2cc(C(=O)C3C(=O)C(=O)N(CCN4CCOCC4)C3c3ccccc3F)ccc2O1 (stereo unspecified) [(4E)-5-(2-fluorophenyl)-4-[(2-methyl-2,3-dihydro-1-benzofuran-5-yl)-oxidanyl-methylidene]-1-(2-morpholin-4-ylethyl)pyrrolidine-2,3-dione] | > 66.7
Cc1ccc(C(=O)C2C(=O)C(=O)N(c3cc(C)on3)C2c2cccc(Br)c2)cc1 (stereo unspecified) [(4E)-5-(3-bromophenyl)-1-(5-methyl-1,2-oxazol-3-yl)-4-[(4-methylphenyl)-oxidanyl-methylidene]pyrrolidine-2,3-dione] | > 66.7
Cc1cc(N2C(=O)C(=O)C(C(=O)c3ccc(F)cc3)C2c2cccc(Br)c2)no1 (stereo unspecified) [(4E)-5-(3-bromophenyl)-4-[(4-fluorophenyl)-hydroxy-methylene]-1-(5-methylisoxazol-3-yl)pyrrolidine-2,3-quinone] | > 66.7
Cc1ccc(C(=O)C2C(=O)C(=O)N(CC(C)O)C2c2ccc(N(C)C)cc2)cc1 (stereo unspecified) [(4E)-5-[4-(dimethylamino)phenyl]-1-(2-hydroxypropyl)-4-[hydroxy(p-tolyl)methylene]pyrrolidine-2,3-quinone] | > 66.7
CCOc1cccc(C(=O)C2C(=O)C(=O)N(Cc3ccco3)C2c2ccncc2)c1 (stereo unspecified) [(4Z)-1-(2-furfuryl)-4-[hydroxy(m-phenetyl)methylene]-5-(4-pyridyl)pyrrolidine-2,3-quinone] | > 66.7
CCOc1ccc(C(=O)C2C(=O)C(=O)N(c3nc(C)c(C)s3)C2c2ccco2)cc1 (stereo unspecified) [(4Z)-1-(4,5-dimethyl-1,3-thiazol-2-yl)-4-[(4-ethoxyphenyl)-hydroxymethylidene]-5-(furan-2-yl)pyrrolidine-2,3-dione] | 57.7

The remaining molecules from weak to strong by IC50, led by results:

IC50 [µM] | SMILES
54.8 | O=C1C(=O)N(CC2CCCO2)C(c2cccnc2)C1C(=O)c1ccco1 (stereo unspecified) [3-(furan-2-carbonyl)-4-hydroxy-1-(oxolan-2-ylmethyl)-2-pyridin-3-yl-2H-pyrrol-5-one]
47.9 | Cc1ccc(C2c3c([nH]c(=S)[nH]c3=O)N=C3CC(C)(C)CC(=O)C32)cc1 (stereo unspecified) [8,8-dimethyl-5-(4-methylphenyl)-2-sulfanylidene-5,7,9,10-tetrahydro-1H-pyrimido[4,5-b]quinoline-4,6-dione]
43 | COC(=O)c1ccc(C2C(C(=O)c3ccc(OC)cc3)C(=O)C(=O)N2Cc2ccco2)cc1 (stereo unspecified) [4-[(3Z)-1-(2-furanylmethyl)-3-[hydroxy-(4-methoxyphenyl)methylidene]-4,5-dioxo-2-pyrrolidinyl]benzoic acid methyl ester]
42.7 | CCCOc1ccc(C2C(C(=O)c3ccc(C)o3)C(=O)C(=O)N2Cc2cccnc2)cc1 (stereo unspecified) [3-(5-methylfuran-2-yl)carbonyl-4-oxidanyl-2-(4-propoxyphenyl)-1-(pyridin-3-ylmethyl)-2H-pyrrol-5-one]
32.5 | COc1cc(-n2nc(C)c3c2OC(=N)C(C#N)C3c2ccccc2)c(Cl)c(Br)c1O (stereo unspecified) [6-amino-1-(3-bromo-2-chloro-4-hydroxy-5-methoxyphenyl)-3-methyl-4-phenyl-1,4-dihydropyrano[2,3-c]pyrazole-5-carbonitrile]
29.7 | COCc1cc(C2C(C(=O)c3ccco3)C(=O)C(=O)N2CCOCCO)ccc1O (stereo unspecified) [3-(furan-2-carbonyl)-4-hydroxy-1-[2-(2-hydroxyethoxy)ethyl]-2-[4-hydroxy-3-(methoxymethyl)phenyl]-2H-pyrrol-5-one]
29.6 | COCCCN1C(=O)C(=O)C(C(=O)c2ccccc2)C1c1ccc2c(c1)OCO2 (stereo unspecified) [(4E)-5-(1,3-benzodioxol-5-yl)-1-(3-methoxypropyl)-4-[oxidanyl(phenyl)methylidene]pyrrolidine-2,3-dione]
20.8 | COC(=O)c1[nH]c(C)c(C(=O)C2C(=O)C(=O)N(CCN3CCOCC3)C2c2cccnc2)c1C (stereo unspecified) [4-[(E)-hydroxy-[1-[2-(4-morpholinyl)ethyl]-4,5-dioxo-2-(3-pyridinyl)-3-pyrrolidinylidene]methyl]-3,5-dimethyl-1H-pyrrole-2-carboxylic acid methyl ester]
19.7 | COc1ccccc1C1C(C(=O)c2ccccc2)C(=O)C(=O)N1CCO (stereo unspecified) [(4Z)-1-(2-hydroxyethyl)-4-[hydroxy(phenyl)methylene]-5-(2-methoxyphenyl)pyrrolidine-2,3-quinone]
14.5 | COCCCN1C(=O)C(=O)C(C(=O)c2ccco2)C1c1ccccc1 (stereo unspecified) [3-(furan-2-carbonyl)-4-hydroxy-1-(3-methoxypropyl)-2-phenyl-2H-pyrrol-5-one]
12.5 | Cc1ccsc1C1C2C(=O)CC(C)(C)CC2=Nc2ncnn21 (stereo unspecified) [6,6-dimethyl-9-(3-methyl-2-thienyl)-1,5,7,9-tetrahydro-[1,2,4]triazolo[5,1-b]quinazolin-8-one]
9.7 | C=CCOc1ccc(C2C(C(=O)c3ccco3)C(=O)C(=O)N2Cc2cccnc2)cc1 (stereo unspecified) [3-(furan-2-carbonyl)-4-hydroxy-2-(4-prop-2-enoxyphenyl)-1-(pyridin-3-ylmethyl)-2H-pyrrol-5-one]
